Assays:
[1] = tested on: macrophages; experiment: Viability and myeloid markers of macrophages after nucleofection with Cas9 RNPs and TPP differentiation; assay type: cell-based, human; conditions: TPP differentiation
Experimental: (§1) gRNA sequences were designed using CRISPick (formerly GPP sgRNA Designer) and synthesised by IDT. gRNA sequences: chr21q22 5′ gRNA, […]; chr21q22 3′ gRNA, […]; ETS2 gRNA1, […]; ETS2 gRNA2, […]. Alt-R CRISPR-Cas9 Negative Control crRNA #1 (IDT) was used as a non-targeting control. Cas9-gRNA ribonucleoproteins were assembled as described previously and nucleofected into 5×10^6 monocytes in 100 μL nucleofection buffer (Human Monocyte Nucleofection Kit, Lonza) using a Nucleofector 2b (Lonza, program Y-001). After nucleofection, monocytes were immediately transferred into 5 ml of pre-warmed culture media in a 6-well flat-bottomed plate, and differentiated into macrophages under TPP conditions. Editing efficiency was quantified by PCR amplification of the target region in extracted DNA (chr21q22_Fw primer, […]; chr21q22_Rv, […]; ETS2_g1_Fw, […]; ETS2_g1_Rv, […]; ETS2_g2_Fw, […]; ETS2_g2_Rv, […]). Editing efficiency at the chr21q22 locus was measured via quantification of amplified fragments (2100 Bioanalyzer, Agilent) as previously described. Editing efficiency for individual gRNAs was assessed using the Inference of CRISPR Edits tool (ICE, Synthego).
Expression of myeloid markers was assessed by flow cytometry (BD LSRFortessaTMX-20). […] Data were analysed using FlowJo v10 (BD Biosciences).

[2] = tested on: ETS2; experiment: CRISPR-Cas9 editing efficiency at the ETS2 locus in primary monocytes; assay type: cell-based, human; conditions: Cas9 RNPs nucleofected into primary monocytes; ICE analysis
Experimental: as §1

[3] = tested on: intestinal mucosal biopsies from patients with active IBD; experiment: Human gut explant model: IBD intestinal mucosal biopsies cultured on transwell insert; assay type: cell-based; conditions: 18 hours culture; for release of IBD-associated inflammatory cytokines from biopsies: PD-0325901 0.5 μM or infliximab 10 µg/ml, vs DMSO, n=10
Experimental: During colonoscopy, intestinal mucosal biopsies (6 per donor) were collected from 10 IBD patients (7 ulcerative colitis, 3 Crohn's disease). All had endoscopically active disease and were not receiving immunosuppressive or biologic therapies. All biopsies were collected from a single inflamed site. All patients provided written informed consent. Ethical approval was provided by the London-Brent Regional Ethics Committee (REC: 21/LO/0682). Biopsies were collected into Opti-MEM and within 1 hour were weighed and placed in pairs onto a transwell insert (ThermoFisher)—designed to create an air-liquid interface70—in a 24-well plate. Each well contained 1 ml media and was supplemented with either DMSO (vehicle control), PD-0325901 (0.5 μM) or infliximab ([…]; MSD). Media: Opti-MEM I (Gibco); GlutaMAX (ThermoFisher): 10% FBS (ThermoFisher), MEM Non-Essential Amino Acids (ThermoFisher); 1% sodium pyruvate (ThermoFisher); 1% penicillin/streptomycin (ThermoFisher); 500 µg/ml gentamicin (Merck). After 18 hours, supernatants and biopsies were snap frozen. Supernatant cytokine concentrations were quantified using LEGENDplex Human Inflammation Panel (Biolegend). RNA was extracted from biopsies and libraries prepared as described earlier (n=9, RNA from one donor was too degraded). Sequencing was performed on a NovaSeq 6000 (100 bp, PE reads). Data were processed as described earlier and GSVA was performed for ETS2-regulated genes and biopsy-derived signatures of IBD-associated inflammation.

[4] = tested on: inflammatory macrophages (TPP); experiment: MEK inhibitor (PD-0325901) testing in inflammatory macrophages (TPP), RNA-seq and fGSEA; assay type: cell-based, human
Experimental: Leukocyte cones from healthy donors were obtained from NHS Blood and Transplant (Cambridge Blood Donor Centre, Colindale Blood Centre, or Tooting Blood Donor Centre). Peripheral blood mononuclear cells (PBMCs) were isolated by density centrifugation (Histopaque 1077, Sigma) and monocytes were positively selected using CD14 Microbeads (Miltenyi Biotec). Macrophage differentiation was performed using conditions that model chronic inflammation (TPP): 3 days GM-CSF (50 ng/ml, Peprotech) followed by 3 days GM-CSF, TNFα (50 ng/ml, Peprotech), PGE2 (1 μg/ml, Sigma Aldrich), and […] (1 μg/ml, Invivogen). […]
RNA was isolated from macrophage lysates (AllPrep DNA/RNA Micro Kit, Qiagen) and sequencing libraries prepared from 10 ng RNA using the SMARTer Stranded Total RNA-Seq Kit v2-Pico Input Mammalian (Takara) following the manufacturer's instructions. Libraries were sequenced on a NextSeq2000 (50 bp, PE reads: CRISPR-based loss-of-function, roxadustat and PD-0325901 experiments) or a NovaSeq6000 (100 bp, PE reads: overexpression experiments). Reads were trimmed using Trim Galore (Phred score 24), filtered to remove reads <20 bp, and ribosomal reads were removed using the BBSplit function of BBMap (BBMap, sourceforge.net/projects/bbmap/) with the Human ribosomal DNA complete repeating unit (GenBank: U13369.1). […]

## gRNA1: ETS2 guide RNA, CAGACACAGAAUUACCCCAA, delivered as Cas9 RNP (delivered as Cas9 ribonucleoprotein complex, further chemistry not given here)
[1]
  viability of macrophages following nucleofection with Cas9 RNPs and differentiation, mean: 98.3%
[2]
  editing efficiency at the ETS2 locus, mean indel rate: 89.7%

## gRNA2: ETS2 guide RNA, UUGCUGCACGGGGUUAACAA, delivered as Cas9 RNP (delivered as Cas9 ribonucleoprotein complex, further chemistry not given here)
[1]
  viability of macrophages following nucleofection with Cas9 RNPs and differentiation, mean: 98.6%
[2]
  editing efficiency at the ETS2 locus, mean indel rate: 78.6%

## infliximab
[3]
  release of IBD-associated inflammatory cytokines from biopsies: comparable levels

## O=C(NOC[C@H](O)CO)c1ccc(F)c(F)c1Nc1ccc(I)cc1F [PD-0325901]
[4]; PD-0325901 0.5 μM added day 4, harvested day 6, vs vehicle (DMSO), n=3
  anti-inflammatory activity (relative expression of chr21q22-regulated genes), phenocopying ETS2 disruption or chr21q22 enhancer deletion: potent anti-inflammatory activity
[4]; PD-0325901 0.5 μM, day 4 to day 6, vs vehicle
  inflammatory pathways (fGSEA, Gene Ontology Biological Pathways): downregulation of multiple inflammatory pathways
[3]
  release of IBD-associated inflammatory cytokines from biopsies: significantly reduced
[3]; PD-0325901 0.5 μM, n=9
  expression of ETS2-regulated genes in IBD biopsies (GSVA): reduced
  validated transcriptional inflammation score (bMIS, GSVA): significant improvement
